Experimental data from ChEMBL document CHEMBL5608232, “Novel Glucagon-like Peptide 1 Receptor Agonists for Treating Type II Diabetes” (ACS Med Chem Lett, 2024).

Biological target: Glucagon-like peptide 1 receptor (Homo sapiens, UniProt P43220)
Test: Agonist activity at human GLP-1R expressed in HEK293 cells assessed as increase in intracellular cAMP level incubated for 30 mins by HTRF assay
Format: functional, cell-based

Chain of Glucagon-like peptide 1 receptor (P43220 whole entry): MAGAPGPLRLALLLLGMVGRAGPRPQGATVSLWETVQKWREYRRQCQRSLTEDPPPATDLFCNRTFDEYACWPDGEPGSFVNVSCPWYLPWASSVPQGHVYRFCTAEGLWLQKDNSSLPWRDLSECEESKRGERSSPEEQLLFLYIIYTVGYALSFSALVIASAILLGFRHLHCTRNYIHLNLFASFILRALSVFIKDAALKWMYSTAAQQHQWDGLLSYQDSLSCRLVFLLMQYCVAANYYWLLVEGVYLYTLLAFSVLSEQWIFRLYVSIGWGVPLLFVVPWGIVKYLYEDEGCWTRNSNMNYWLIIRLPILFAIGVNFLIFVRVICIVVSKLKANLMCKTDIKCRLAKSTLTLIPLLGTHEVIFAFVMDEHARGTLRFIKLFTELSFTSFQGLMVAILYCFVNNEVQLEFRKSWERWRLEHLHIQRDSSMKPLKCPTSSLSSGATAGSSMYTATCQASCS

| SMILES | EC50 |
| --- | --- |
| COc1cc(C(=O)O)cc2c1nc(Cc1cc(F)c(-c3cccc(OCc4ccc(C#N)cc4C)n3)cc1F)n2C[C@@H]1CCO1 | 0.3 nM |
| COCCOc1cc(C(=O)O)cc2c1nc(Cc1cc(F)c(-c3cccc(OCc4ccc(C#N)cc4F)n3)cc1F)n2C[C@@H]1CCO1 | 0.297 nM |
| COc1cc(C(=O)O)cc2c1nc(Cc1cc(C)c(-c3cccc(OCc4ccc(C#N)cc4F)n3)cc1F)n2C[C@@H]1CCO1 | 0.291 nM |
| COc1cc(C(=O)O)cc2c1nc(Cc1cc(F)c(-c3cccc(OCc4ccc(C#N)cc4F)n3)cc1F)n2C[C@@H]1CCO1 | 0.221 nM |
| COc1cc(C#N)ccc1COc1cccc(-c2cc(F)c(Cc3nc4c(OC)cc(C(=O)O)cc4n3C[C@@H]3CCO3)cc2F)n1 | 0.167 nM |
| COc1cc(C(=O)O)cc2c1nc(Cc1cc(F)c(-c3cccc(OCc4ccc(-n5cncn5)cc4)n3)cc1F)n2C[C@@H]1CCO1 | 0.402 nM |
